Measured values as given in US20110033904A1, “METHOD FOR PREPARING ORTHODIHYDROXYISOFLAVONES USING A BIOTRANSFORMATION SYSTEM” (priority 2008, published 2011).

Tested on: C57BL/6 mouse melanocyte cells (MeI-Ab cells)
Assay: Melanin production inhibitory effects using MeI-Ab cells (Dooley's method)
Type: cell-based
Settings: substances added during 3 days from day 2 of culture, absorbance at 400 nm, hydroquinone 100 ppm
Description: The melanin production inhibitory effects of the ODIs obtained in Examples 1 and 2 were measured using MeI-Ab cells.
First, C57BL/6 mouse melanocyte cells (MeI-Ab cells) (Dooley, T. P. et al, Skin pharmacol, 7, pp 188-200) were cultured in a DMEM (Dulbeccos modified Eagles media) medium containing 10% fetal bovine serum, 100 nM 2-O-tetradecanoylphorbol-13-acetate and 1 nM cholera toxin in conditions of 37° C. and 5% CO2. The cultured MeI-Ab cells were detached by 0.25% trypsin-EDTA and cultured in a 24-well plate at a concentration of 10^5 cells/well. During the culture period, 100 ppm hydroquinone and each of the ODIs obtained in Examples 1 and 2 were added to the cells continuously during 3 days from 2 days after the start of the culture. Herein, the hydroquinone was used as a positive control group. The culture broth was collected and washed, and the cells were lysed with 1N sodium hydroxide and measured for absorbance at 400 nm.
Melanin production inhibition (%)=100−(absorbance of each test substance/absorbance of control group×100) [Math Figure 1]

Row | Structure (SMILES) | inhibition at 100 ppm (Mus musculus, Melanocyte) [%] | Melanin production inhibition (%)
1 | Oc1ccc(O)cc1 [Hydroquinone, hydroquinone, reference compound] | 41.1 | –
2 | O=c1c(-c2ccc(O)cc2)coc2c(O)c(O)ccc12 [7,8,4′-trihydroxyisoflavone] | – | 39.8
3 | O=c1c(-c2ccc(O)c(O)c2)coc2cc(O)ccc12 [7,3′,4′-trihydroxyisoflavone] | – | 38.7
4 | O=c1c(-c2ccc(O)cc2)coc2cc(O)c(O)cc12 [7,6,4′-trihydroxyisoflavone] | – | 38.8
5 | O=c1c(-c2ccc(O)c(O)c2)coc2cc(O)cc(O)c12 [7,5,3′,4′-tetrahydroxyisoflavone] | – | 40.8
